Results published in patent US11760751B2, “Benzo 2-azaspiro[4.4]nonane compound and use thereof” (HELIOEAST PHARMACEUTICAL CO., LTD., priority 2020, dated 2023).
Where a name gives a salt, the structure may show the parent alone.

Legend:
S1PR1 = molecular target: T1, S1PR1 (Homo sapiens, UniProt P21453); test: In vitro S1PR1 agonistic activity, PathHunter cell line, chemiluminescent detection; format: cell-based; settings: for EC50: 90-180 min at 37° C.; for Emax: % activity vs maximum control ligand
T1 construct: expressed in transfected cells
Experimental: Test Embodiment 1: In Vitro Evaluation of the Agonistic Activity of the Compounds of the Present Disclosure on S1PR1
Experimental objective: to detect the agonistic activity of compounds on S1PR1
I. Cell Treatment • 1. A PathHunter cell line was thawed according to standard procedures; • 2. the cells were inoculated in a 20 μL 384-well microplate and incubated at 37° C. for appropriate time.
II. Agonist • 1. For agonist determination, cells were incubated with samples to be tested to induce a reaction; • 2. a storage solution to be tested was 5-fold diluted into a buffer; • 3. 5 μL of the 5-fold dilution was added to the cells and incubated at 37° C. for 90-180 minutes. The vehicle concentration was 1%.
III. Signal Detection • 1. 12.5 μL or 15 μL of PathHunter detection reagent at a volume ratio of 50% was added at a time, and then incubated at room temperature for 1 hour to generate a detection signal; • 2. the microplate was read with a PerkinElmer Envision™ instrument for chemiluminescent signal detection.
IV. Data Analysis • 1. Activity analysis of the compound was carried out by using CBIS data analysis kit (ChemInnovation, CAA); • 2. calculation formula: % activity=100%×(average test sample RLU−average vehicle RLU)/(average maximum control ligand−average vehicle RLU)

[1] = Pharmacokinetic evaluation in CD-1 mice (intravenous and oral); format: in vivo; settings: male, mouse, plasma
Experimental: Test Embodiment 4: Pharmacokinetic Evaluation of Compound in Mice
Experimental objective: to test the pharmacokinetics of the compound in CD-1 mice
CD-1 mice (male, 20-40 g, 6-10 weeks old, Shanghai BK)
(§1) The standard protocol was used to test the pharmacokinetic characteristics of rodents after intravenous injection and oral administration of the compound. In the experiment, the candidate compound was prepared into a clear solution or a suspension, and administrated to two mice by single intravenous injection and oral administration. The vehicle for intravenous injection was a 5:95 DMSO and 10% hydroxypropyl β-cyclodextrin aqueous solution, and the vehicle for oral administration was a 0.5% w/v methylcellulose and 0.2% w/v tween 80 aqueous solution. Whole blood samples within 24 hours were collected, centrifuged at 3200 g for 10 minutes, and the supernatant was separated to obtain plasma samples. 4-fold volume of acetonitrile solution containing internal standard was added thereto to precipitate protein. The mixture was centrifuged, and the supernatant was taken, and an equal volume of water was added thereto. Then the mixture was centrifuged and the supernatant was taken for injection. The blood drug concentration was quantitatively analyzed by LC-MS/MS analysis method, and pharmacokinetic parameters, such as peak concentration, clearance rate, half-life, area under the drug-time curve and bioavailability, were calculated.

[2] = Pharmacokinetic evaluation in SD rats (intravenous and oral); format: in vivo; settings: male, Sprague-Dawley, plasma, SD rat; for Cmax / bioavailability: intravenous 1.0 mg/kg; for Cmax: oral 2.0 mg/kg (route of Cmax not stated), read-out: Peak concentration Cmax; for bioavailability: oral 2.0 mg/kg, read-out: Bioavailability F; for clearance / Vd: intravenous injection 1.0 mg/kg (oral 2.0 mg/kg); for clearance: read-out: Clearance rate CL; for Vd: read-out: Tissue distribution Vdss; for AUC(0-t) / half-life: oral administration 2.0 mg/kg; for AUC(0-t): read-out: Area under the drug-time curve AUC0-last PO; for half-life: read-out: Half-life T1/2 (PO) (converted)
Experimental: Test Embodiment 3: Pharmacokinetic Evaluation of Compound in Rats
Experimental objective: to test the pharmacokinetics of the compound in SD rats
Sprague Dawley rat (male, 200-300 g, 7-9 weeks old, Shanghai SLAC)
as §1, with “A standard” for “The standard”, “clear solution,” for “clear solution or a suspension,”, “to rats” for “to two mice”, “hydroxypropyl cyclodextrin” for “hydroxypropyl β-cyclodextrin”, “at 3000” for “at 3200”, “for 15” for “for 10”

T1 sequence (P21453 whole entry): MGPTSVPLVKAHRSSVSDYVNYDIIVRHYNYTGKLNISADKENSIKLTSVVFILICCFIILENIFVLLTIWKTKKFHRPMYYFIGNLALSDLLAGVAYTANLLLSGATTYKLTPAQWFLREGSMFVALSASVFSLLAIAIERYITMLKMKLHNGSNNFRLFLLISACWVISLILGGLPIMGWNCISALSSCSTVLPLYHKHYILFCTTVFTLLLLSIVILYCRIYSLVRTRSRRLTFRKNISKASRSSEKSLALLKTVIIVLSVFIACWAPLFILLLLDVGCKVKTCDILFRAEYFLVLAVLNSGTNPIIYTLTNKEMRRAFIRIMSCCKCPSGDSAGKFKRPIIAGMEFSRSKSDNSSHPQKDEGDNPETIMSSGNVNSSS

EC50 (S1PR1) | Emax (S1PR1) | Compound | other results
4.47 nM | 73.8% | CC(C)Oc1ccc(-c2ncc(-c3cccc4c3CCC43CCN(CC4(C(=O)O)CC4)C3)s2)cc1C#N (stereo not drawn) [Hydrochloride of compound 26] | –
11.5 nM | 82.1% | CC(C)Oc1ccc(-c2ncc(-c3cccc4c3CCC43CCN(CC4(C(=O)O)CC4)C3)cn2)cc1C#N (stereo not drawn) [Hydrochloride of compound 25] | –
0.865 nM | 115% | CC(C)Oc1ccc(-c2nc(-c3cccc4c3CCC43CCN(C(=O)CN)C3)no2)cc1C#N (stereo not drawn) [Hydrochloride of compound 6] | –
14.4 nM | 77.8% | CC(C)Oc1ccc(-c2nsc(-c3cccc4c3CCC43CCN(C(=O)CO)C3)n2)cc1C#N (stereo not drawn) [Compound 16] | –
2.2 nM | 98.9% | CC(C)Oc1ccc(-c2nnc(-c3cccc4c3CCC43CCN(C(=O)CO)C3)s2)cc1C#N (stereo not drawn) [Compound 15] | –
3.46 nM | 144% | CC(C)Oc1ncc(-c2nc(-c3cccc4c3CCC43CCN(CC4(C(=O)O)CC4)C3)no2)cc1Cl (stereo not drawn) [Hydrochloride of compound 39] | –
0.0353 nM | 68.3% | CC(C)Oc1ccc(-c2nc(-c3cccc4c3CCC43CCN(CC4(C(=O)O)CCC4)C3)no2)cc1C#N (stereo not drawn) [Hydrochloride of compound 23] | –
4.99 nM | 87.1% | CC(C)Oc1ccc(-c2nc(-c3cccc4c3CCC43CCN(CC4(C(=O)O)CC4)C3)ns2)cc1C#N (stereo not drawn) [Hydrochloride of compound 24] | –
9.78 nM | 63.4% | CC(C)Oc1ccc(-c2ncc(-c3cccc4c3CCC43CCN(CC4(C(=O)O)CC4)C3)o2)cc1C#N (stereo not drawn) [Hydrochloride of compound 27] | –
0.1 nM | 108% | CC(C)Oc1ccc(-c2nc(-c3cccc4c3CCC43CCN(CC4(C(=O)O)CC4)C3)no2)cc1C(F)(F)F (stereo not drawn) [Hydrochloride of compound 43] | –
0.29 nM | 126% | CC(C)Oc1ccc(-c2nc(-c3cccc4c3CCC43CCN(C(=O)[C@@H](O)CO)C3)no2)cc1C#N (stereo partly drawn) [Compound 45] | Cmax [2]: 1180 ng/mL; bioavailability [2]: 59.2%; clearance [2]: 1.59 mL/min/kg; Vd [2]: 1.94 L/kg; AUC(0-t) [2]: 22.9 µM·h; half-life [2]: 13.2 h
1.59 nM | 82.2% | CC(C)Oc1ccc(-c2ncc(-c3cccc4c3CCC43CCN(C(=O)CO)C3)s2)cc1C#N (stereo not drawn) [Compound 14] | –
0.0688 nM | 85.1% | CC(C)Oc1ccc(-c2nc(-c3cccc4c3CCC43CCN(C(=O)CCC(=O)O)C3)no2)cc1C#N (stereo not drawn) [Compound 5] | –
1.32 nM | 77.7% | CC(C)Oc1ccc(-c2nnc(-c3cccc4c3CCC43CCN(CC4(C(=O)O)CC4)C3)s2)cc1C#N (stereo not drawn) [Hydrochloride of compound 28] | –
0.72 nM | 104% | CC(C)Oc1ccc(-c2nc(-c3cccc4c3CCC43CCN(C(=O)[C@H](O)CO)C3)no2)cc1C#N (stereo partly drawn) [Hydrochloride of compound 44] | –
9.39 nM | 90.4% | CC(C)Oc1ccc(-c2nc(-c3cccc4c3CCC43CCN(C(=O)CO)C3)ns2)cc1C#N (stereo not drawn) [Compound 20] | –

Second part, the compound before the results:

Compound | EC50 (S1PR1) | Emax (S1PR1) | other results
COCC(=O)N1CCC2(CCc3c(-c4noc(-c5ccc(OC(C)C)c(C#N)c5)n4)cccc32)C1 (stereo not drawn) [Compound 3] | 0.129 nM | 88.6% | –
CC(C)Oc1ncc(-c2nc(-c3cccc4c3CCC43CCN(C(=O)CO)C3)no2)cc1C#N (stereo not drawn) [Compound 8] | 0.188 nM | 96.8% | Cmax ([1]; intravenous 0.5 mg/kg, oral 2.0 mg/kg (route of Cmax not stated), read-out: Peak concentration Cmax): 2280 ng/mL; bioavailability ([1]; intravenous 0.5 mg/kg, oral 2.0 mg/kg, read-out: Bioavailability F): 80.3%; clearance ([1]; intravenous injection 0.5 mg/kg (oral 2.0 mg/kg), read-out: Clearance rate CL): 3.58 mL/min/kg; Vd ([1]; intravenous injection 0.5 mg/kg (oral 2.0 mg/kg), read-out: Tissue distribution Vdss): 0.816 L/kg; AUC(0-t) ([1]; oral administration 2.0 mg/kg, read-out: Area under the drug-time curve AUC0-last PO): 16.3 µM·h; half-life ([1]; oral administration 2.0 mg/kg, read-out: Half-life T1/2 (PO) (converted)): 2.9 h
CC(C)Cc1ccc(-c2nc(-c3cccc4c3CCC43CCN(CC4(C(=O)O)CC4)C3)no2)cc1 (stereo not drawn) [Hydrochloride of compound 46] | 5.76 nM | 105% | –
CC(C)Oc1ccc(-c2nc(-c3cccc4c3CCC43CCN(C(=O)CO)C3)no2)cc1Br (stereo not drawn) [Compound 10] | 1.31 nM | 101% | –
CC(C)Oc1ccc(-c2cnc(-c3cccc4c3CCC43CCN(C(=O)CO)C3)cn2)cc1C#N (stereo not drawn) [Compound 19] | 3.25 nM | 77.8% | –
N#Cc1cc(-c2nc(-c3cccc4c3CCC43CCN(C(=O)CO)C3)no2)ccc1OC1CCCC1 (stereo not drawn) [Compound 9] | 2.15 nM | 75.8% | –
CC(C)Oc1ccc(-c2nc(-c3cccc4c3CCC43CCN(C(=O)CS(C)(=O)=O)C3)no2)cc1C#N (stereo not drawn) [Compound 7] | 0.123 nM | 90.7% | –
CC(C)Oc1ccc(-c2nc(-c3cccc4c3CCC43CCN(C(=O)CC#N)C3)no2)cc1C#N (stereo not drawn) [Compound 4] | 0.107 nM | 99.4% | –
N#Cc1cc(-c2nc(-c3cccc4c3CCC43CCN(C(=O)CO)C3)no2)ccc1OC(F)F (stereo not drawn) [Compound 17] | 8.59 nM | 80.8% | –
COc1cc(-c2nc(-c3cccc4c3CCC43CCN(CC4(C(=O)O)CC4)C3)no2)cc(C2CCCC2)n1 (stereo not drawn) [Compound 40] | 2.82 nM | 102% | Cmax [2]: 357 ng/mL; bioavailability [2]: 63.9%; clearance [2]: 5.47 mL/min/kg; Vd [2]: 5.99 L/kg; AUC(0-t) [2]: 7.14 µM·h; half-life [2]: 8.83 h
CC(C)Oc1ccc(-c2ncc(-c3cccc4c3CCC43CCN(C(=O)CO)C3)cn2)cc1C#N (stereo not drawn) [Compound 18] | 4.06 nM | 84.2% | –
CC(C)Oc1ccc(-c2nc(-c3cccc4c3CCC43CCN(C(=O)CO)C3)no2)cc1Cl (stereo not drawn) [Compound 11] | 1.78 nM | 84.6% | –
O=C(O)C1(CN2CCC3(CCc4c(-c5noc(-c6ccc(C7CCCCC7)c(C(F)(F)F)c6)n5)cccc43)C2)CC1 (stereo not drawn) [Hydrochloride of compound 37] | 0.047 nM | 94.1% | –
CC(C)Oc1ccc(-c2nc(-c3cccc4c3CCC43CCN(C(=O)CO)C3)no2)cc1C(F)F (stereo not drawn) [Compound 12] | 0.477 nM | 87.6% | –
CC(C)Nc1ncc(-c2nc(-c3cccc4c3CCC43CCN(C(=O)CO)C3)no2)cc1C#N (stereo not drawn) [Compound 13] | 10.7 nM | 77.8% | –
CC(C)Oc1ccc(-c2ncc(-c3cccc4c3CCC43CCN(C(=O)CO)C3)o2)cc1C#N (stereo not drawn) [Compound 21] | 21.7 nM | 70.8% | –
O=C(O)C1(CN2CCC3(CCc4c(-c5noc(-c6ccc(C7CCCC7)c(C(F)(F)F)c6)n5)cccc43)C2)CC1 (stereo not drawn) [Hydrochloride of compound 38] | 0.041 nM | 100% | –
